This passage reports IC50 results from patent publication US20250215029A1 (Recludix Pharma, Inc., priority 2022, published 2025).

Where only a bound is given, the exact number is not on record here.

Experiment [1] addresses T1, Recombinant STAT3 protein (STAT3 (G127-I722)) (Homo sapiens, UniProt P40763).
T1 construct: Recombinant STAT3 protein (STAT3 (G127-I722))
The experiment is described as follows: STAT3 Fluorescence Polarization (FP) Assay. Format: binding. The conditions noted are these: STAT3 25 nM, probe 5-FAM-GpYLPQTV-NH2 2 nM, 45-minute incubation; read-out: STAT3 (FP assay IC50). The procedure, abridged:
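Displacement of a 2 nM 5-FAM-labelled pY peptide (GpYLPQTV) from 25 nM recombinant STAT3 (G127-I722) was monitored by fluorescence polarization. Incubation lasted 45 min at room temperature in pH 7.4 HEPES buffer containing 1% DMSO.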
(In fluorescence polarisation assays a small probe gives low polarisation when free and higher when bound to something large.)

Experiment [2] deals with T2, Recombinant STAT6 protein (STAT6 (W123-T658)) (Homo sapiens, UniProt P42226).
T2 construct: Recombinant STAT6 protein (STAT6 (W123-T658))
T2 sequence (P42226 123-658): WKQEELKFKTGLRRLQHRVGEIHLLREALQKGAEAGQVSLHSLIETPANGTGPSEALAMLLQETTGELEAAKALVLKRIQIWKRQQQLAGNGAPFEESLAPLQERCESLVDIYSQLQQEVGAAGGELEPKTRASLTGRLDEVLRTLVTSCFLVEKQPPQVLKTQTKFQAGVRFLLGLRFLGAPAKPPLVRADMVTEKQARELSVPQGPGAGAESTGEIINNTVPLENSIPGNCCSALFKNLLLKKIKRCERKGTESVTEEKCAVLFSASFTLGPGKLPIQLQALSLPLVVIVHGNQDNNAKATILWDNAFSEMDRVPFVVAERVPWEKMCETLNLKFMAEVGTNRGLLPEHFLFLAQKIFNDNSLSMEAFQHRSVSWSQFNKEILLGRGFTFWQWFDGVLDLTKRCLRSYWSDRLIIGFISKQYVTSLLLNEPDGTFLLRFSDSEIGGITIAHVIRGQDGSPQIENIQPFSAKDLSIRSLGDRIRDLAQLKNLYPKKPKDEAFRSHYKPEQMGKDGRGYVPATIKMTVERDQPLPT
Put plainly: STAT6 Fluorescence Polarization (FP) Assay. Format: binding. The conditions noted are these: STAT6 250 nM, probe 5-FAM-Ap[…]-NH2 2 nM, 45-minute incubation; read-out: STAT6 (FP assay IC50). The procedure, abridged: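 Protein-probe mix (250 nM STAT6 W123-T658, 2 nM 5-FAM-pTyr peptide) in 10 mM HEPES pH 7.4, 50 mM NaCl, 1 mM EDTA, 0.05% Tween 20, 2 mM DTT; added to compound dilution series, 1% DMSO final; 45 min RT; FP read; IC50 via nonlinear regression.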

By IC50 is commonly meant the concentration at which inhibition is half-maximal.

T1 sequence (P40763 127-722): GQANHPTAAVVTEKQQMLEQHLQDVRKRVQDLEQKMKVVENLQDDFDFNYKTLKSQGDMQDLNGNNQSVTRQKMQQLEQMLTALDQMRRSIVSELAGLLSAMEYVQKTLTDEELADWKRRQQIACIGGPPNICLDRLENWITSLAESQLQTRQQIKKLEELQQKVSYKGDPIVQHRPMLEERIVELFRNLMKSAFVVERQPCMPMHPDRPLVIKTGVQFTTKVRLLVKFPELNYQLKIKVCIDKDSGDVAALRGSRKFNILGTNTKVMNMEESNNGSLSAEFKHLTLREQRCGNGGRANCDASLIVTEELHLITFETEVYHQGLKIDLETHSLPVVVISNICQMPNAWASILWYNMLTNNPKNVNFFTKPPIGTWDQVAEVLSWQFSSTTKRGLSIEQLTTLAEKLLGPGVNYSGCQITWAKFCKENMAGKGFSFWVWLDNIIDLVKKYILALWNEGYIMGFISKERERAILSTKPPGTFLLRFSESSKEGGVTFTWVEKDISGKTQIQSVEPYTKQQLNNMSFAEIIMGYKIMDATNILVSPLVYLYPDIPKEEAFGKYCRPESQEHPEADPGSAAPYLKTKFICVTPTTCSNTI

In the case of `O=C(N[C@H]1CCCC[C@H]2CC[C@@H](C(=O)N3CC(F)(c4ccccc4F)C3)N2C1=O)c1cc2cc(C(F)(F)P(=O)(O)O)ccc2s1` [Compound 54, (difluoro(2-(((3S,6S,10aS)-3-(3-fluoro-3-(2-fluorophenyl)azetidine-1-carbonyl)-5-oxodecahydropyrrolo [1,2-a]azocin-6-yl)carbamoyl)benzo[b]thiophen-5-yl)methyl) phosphonic acid], the half-maximal inhibitory concentration (IC50) in experiment [1] was below 100 nM; in experiment [2], 300 to 3000 nM.
Take `O=C(N[C@H]1CCCC[C@H]2CC[C@@H](C(=O)Nc3ccc4nccc(Cl)c4c3)N2C1=O)c1cc2cc(C(F)(F)P(=O)(O)O)ccc2s1` [Compound 55, ((2-(((3S,6S,10aS)-3-((4-chloroquinolin-6-yl)carbamoyl)-5-oxodecahydropyrrolo [1,2-a]azocin-6-yl)carbamoyl)benzo[b]thiophen-5-yl)difluoromethyl) phosphonic acid]: the figures for the 50% inhibitory concentration (IC50) in experiment [1] and in experiment [2] were 100 to 1000 nM and 300 to 3000 nM, respectively.
For `CC(C)(O)c1cn(C2CN(C(=O)[C@@H]3CC[C@@H]4CCCC[C@H](NC(=O)c5cc6cc(C(F)(F)P(=O)(O)O)ccc6s5)C(=O)N43)C2)nn1` [Compound 56, (difluoro(2-(((3S,6S,10aS)-3-(3-(4-(2-hydroxypropan-2-yl)-1H-1,2,3-triazol-1-yl)azetidine-1-carbonyl)-5-oxodecahydropyrrolo [1,2-a]azocin-6-yl)carbamoyl)benzo[b]thiophen-5-yl)methyl) phosphonic acid], the concentration for half-maximal inhibition (IC50) in experiment [1] was 100 to 1000 nM; in experiment [2], 3000 to 30000 nM.
Turning to `O=C(N[C@H]1CCCC[C@H]2CC[C@@H](C(=O)Nc3ccc4c(c3)CCS4(=O)=O)N2C1=O)c1cc2cc(C(F)(F)P(=O)(O)O)ccc2s1` [Compound 57, ((2-(((3S,6S,10aS)-3-((1,1-dioxido-2,3-dihydrobenzo[b]thiophen-5-yl)carbamoyl)-5-oxodecahydropyrrolo [1,2-a]azocin-6-yl)carbamoyl)benzo[b]thiophen-5-yl)difluoromethyl) phosphonic acid], the values for the IC50 in experiment [1] and in experiment [2] were 100 to 1000 nM and 300 to 3000 nM, respectively.
In the case of `O=C(N[C@H]1CCCC[C@H]2CC[C@@H](C(=O)Nc3ccc4c(c3)CCCS4(=O)=O)N2C1=O)c1cc2cc(C(F)(F)P(=O)(O)O)ccc2s1` [Compound 58, ((2-(((3S,6S,10aS)-3-((1,1-dioxidothio-chroman-6-yl)carbamoyl)-5-oxodecahydropyrrolo [1,2-a]azocin-6-yl)carbamoyl)benzo[b]thiophen-5-yl)difluoro-methyl)phosphonic acid], the concentration for half-maximal inhibition (IC50) in experiment [1] is 100 to 1000 nM; in experiment [2], 300 to 3000 nM.
For `Cc1[nH]nc2ccc(NC(=O)[C@@H]3CC[C@@H]4CCCC[C@H](NC(=O)c5cc6cc(C(F)(F)P(=O)(O)O)ccc6s5)C(=O)N43)cc12` [Compound 59, (difluoro(2-(((3S,6S,10aS)-3-((3-methyl-2H-indazol-5-yl)carbamoyl)-5-oxodecahydro-pyrrolo[1,2-a]azocin-6-yl)carbamoyl)benzo[b]thiophen-5-yl)methyl) phosphonic acid] the same measures were 100 to 1000 nM and 300 to 3000 nM.
Take `O=C(N[C@H]1CCC[C@H]2CCC[C@@H](C(=O)N3CC(n4ccnc4)C3)N2C1=O)c1cc2cc(C(F)(F)P(=O)(O)O)ccc2s1` [Compound 60, ((2-(((4S,7S,10aS)-4-(3-(1H-imidazol-1-yl)azetidine-1-carbonyl)-6-oxodecahydropyrido [1,2-a]azepin-7-yl)carbamoyl)benzo[b]thiophen-5-yl)difluoromethyl) phosphonic acid]: the figures for the concentration for half-maximal inhibition (IC50) in experiment [1] and in experiment [2] were below 100 nM and 3000 to 30000 nM, respectively.
The matching figures for `N=S1(=O)CCC(C2CN(C(=O)[C@@H]3CC[C@@H]4CCCC[C@H](NC(=O)c5cc6cc(C(F)(F)P(=O)(O)O)ccc6s5)C(=O)N43)C2)CC1` (stereo partly drawn) [Compound 61, (difluoro(2-(((3S,6S,10aS)-3-(3-(1-imino-1-oxidohexahydro-1l6-thiopyran-4-yl)azetidine-1-carbonyl)-5-oxodecahydropyrrolo [1,2-a]azocin-6-yl)carbamoyl)benzo[b]thiophen-5-yl)methyl) phosphonic acid]: 100 to 1000 nM and 300 to 3000 nM.
For the molecule `O=C(N[C@H]1CCCC[C@H]2CCC[C@@H](C(=O)N3CC(n4ccnc4)C3)N2C1=O)c1cc2cc(C(F)(F)P(=O)(O)O)ccc2s1` [Compound 62, ((2-(((4S,7S,11aS)-4-(3-(1H-imidazol-1-yl)azetidine-1-carbonyl)-6-oxodecahydro-2H-pyrido[1,2-a]azocin-7-yl)carbamoyl)benzo[b]thiophen-5-yl)difluoromethyl) phosphonic acid], the half-inhibitory concentration (IC50) in experiment [1] is above 10000 nM; in experiment [2] it was above 30000 nM.
The matching figures for `C#Cc1ncoc1C1CN(C(=O)[C@@H]2CC[C@@H]3CCCC[C@H](NC(=O)c4cc5cc(C(F)(F)P(=O)(O)O)ccc5s4)C(=O)N32)C1` [Compound 64, ((2-(((3S,6S,10aS)-3-(3-(4-ethynyloxazol-5-yl)azetidine-1-carbonyl)-5-oxodecahydropyrrolo [1,2-a]azocin-6-yl)carbamoyl)benzo[b]thiophen-5-yl)difluoromethyl) phosphonic acid]: below 100 nM and 300 to 3000 nM.
As for `Cn1ccc(C2CN(C(=O)[C@@H]3CC[C@@H]4CCCC[C@H](NC(=O)c5cc6cc(C(F)(F)P(=O)(O)O)ccc6s5)C(=O)N43)C2)n1` [Compound 65, (difluoro(2-(((3S,6S,10S)-3-(3-(1-methyl-1H-pyrazol-3-yl)azetidine-1-carbonyl)-5-oxodecahydropyrrolo [1,2-a]azocin-6-yl)carbamoyl)benzo[b]thiophen-5-yl)methyl) phosphonic acid], the IC50 in experiment [1] is 100 to 1000 nM; in experiment [2], 300 to 3000 nM.
For `CS(=N)(=O)CC1CN(C(=O)[C@@H]2CC[C@@H]3CCCC[C@H](NC(=O)c4cc5cc(C(F)(F)P(=O)(O)O)ccc5s4)C(=O)N32)C1` (stereo partly drawn) [Compound 66, (difluoro(2-(((3S,6S,10aS)-3-(3-((S-methyl-sulfonimidoyl)methyl)azetidine-1-carbonyl)-5-oxodecahydropyrrolo [1,2-a]azocin-6-yl)carbamoyl)benzo[b]thiophen-5-yl)methyl) phosphonic acid], the IC50 in experiment [1] was below 100 nM; in experiment [2] it was 3000 to 30000 nM.
For the molecule `O=C(N[C@H]1CCCC[C@H]2CC[C@@H](C(=O)N3CC(c4c[nH]cn4)C3)N2C1=O)c1cc2cc(C(F)(F)P(=O)(O)O)ccc2s1` [Compound 67, ((2-(((3S,6S,10aS)-3-(3-(1H-imidazol-4-yl)azetidine-1-carbonyl)-5-oxodecahydro-pyrrolo[1,2-a]azocin-6-yl)carbamoyl)benzo[b]thiophen-5-yl)difluoromethyl) phosphonic acid], the concentration for half-maximal inhibition (IC50) is below 100 nM in experiment [1] and 300 to 3000 nM in experiment [2].
Consider `Cc1cnn(C2CN(C(=O)[C@@H]3CC[C@@H]4CCCC[C@H](NC(=O)c5cc6cc(C(F)(F)P(=O)(O)O)ccc6s5)C(=O)N43)C2)c1` [Compound 68, (difluoro(2-(((3S,6S,10aS)-3-(3-(4-methyl-1H-pyrazol-1-yl)azetidine-1-carbonyl)-5-oxodecahydropyrrolo [1,2-a]azocin-6-yl)carbamoyl)benzo[b]thiophen-5-yl)methyl) phosphonic acid], for which the figures for the 50% inhibitory concentration (IC50) in experiment [1] and in experiment [2] were 100 to 1000 nM and 3000 to 30000 nM, respectively.
In the case of `Cn1nccc1C=C1CN(C(=O)[C@@H]2CC[C@@H]3CCCC[C@H](NC(=O)c4cc5cc(C(F)(F)P(=O)(O)O)ccc5s4)C(=O)N32)C1` [Compound 69, (difluoro(2-(((3S,6S,10aS)-3-(3-((1-methyl-1H-pyrazol-5-yl)methylene)azetidine-1-carbonyl)-5-oxodecahydropyrrolo [1,2-a]azocin-6-yl)carbamoyl)benzo[b]thiophen-5-yl)methyl) phosphonic acid], the IC50 fell in the range of 100 to 1000 nM in experiment [1] and 300 to 3000 nM in experiment [2].
`N=S1(=O)CC2(CN(C(=O)[C@@H]3CC[C@@H]4CCCC[C@H](NC(=O)c5cc6cc(C(F)(F)P(=O)(O)O)ccc6s5)C(=O)N43)C2)C1` [Compound 70, (difluoro(2-(((3S,6S,10aS)-3-(2-imino-2-oxido-2l6-thia-6-azaspiro[3.3]heptane-6-carbonyl)-5-oxodecahydropyrrolo [1,2-a]azocin-6-yl)carbamoyl)benzo[b]thiophen-5-yl)methyl) phosphonic acid]: the concentration for half-maximal inhibition (IC50) in experiment [1] lay in the range of 100 to 1000 nM; in experiment [2] it was 3000 to 30000 nM.
